Reference: patent US11572590B2, “Methods for evaluating tumor cell spheroids using 3D microfluidic cell culture device” (Dana-Farber Cancer Institute, Inc., priority 2017, dated 2023)

How the values were obtained:
B16F10 MDOTS [1] = assay: Live/dead (AO/PI) imaging of B16F10 MDOTS in 3D microfluidic culture; format: cell-based, murine; conditions: Cmpd1 (1 μM) + αPD-1, 6 days
Experimental: (§1) Fresh tumor specimens (murine and human patients) were received in media (DMEM) on ice and minced in a 10 cm dish (on ice) using sterile forceps and scalpel. Minced tumor was resuspended in DMEM ([…], […] sodium pyruvate, 1:100 penicillin-streptomycin) (Corning CellGro, Manassas, Va.) +10% FBS (Gemini Bio-Products, West Sacramento, Calif.), 100 U/mL collagenase type IV (Life Technologies, Carlsbad, Calif.), and 15 mM HEPES (Life Technologies, Carlsbad, Calif.), except for CT26 tumors that were prepared in RPMI. Samples were pelleted and resuspended in 10-20 mL media. Red blood cells were removed from visibly bloody samples using RBC Lysis Buffer (Boston Bio-Products, Ashland, Mass.). […]
Dual labeling was performed by loading microfluidic device with Nexcelom ViaStain™ AO/PI Staining Solution (Nexcelom, CS2-0106). Following incubation with the dyes (20 minutes at room temperature in the dark), images were captured on a Nikon Eclipse 80i fluorescence microscope equipped with Z-stack (Prior) and CoolSNAP CCD camera (Roper Scientific). […] Live and dead cell quantitation was performed by measuring total cell area of each dye. […]

B16F10 lung metastases = assay: B16F10 tail vein injection model, lung metastases; format: in vivo, mouse; conditions: Compound 1 40 mg/kg daily for 13 days ± anti-PD-L1 10 mg/kg
Experimental: Combination studies were performed by vivoPharm (Hummelstown, Pa., USA). All procedures used in the performance of these studies were carried out in accordance with vivoPharm's Standard Operating Procedures, with particular reference to US_SOPvP_EF0314 “General Procedures for Efficacy Studies.” CT26 colon carcinoma cells (1×10^6 cells/mouse in 100 μL, passage 2-3) were re-suspended in serum-free DMEM and implanted in the upper right flank of 11-12 week old female Balb/c mice (Charles River Laboratories). Mice were randomized into four groups of 10 using a matched pair distribution method based on tumor size for CT26. Treatment was initiated 12 days post-inoculation with mean tumor volume at start of dosing of 125.85 mm^3. Vehicle or Compound 1 (40 mg/kg) was administered by oral gavage daily for 26 days and isotype control or a reverse chimera anti-PD-L1 cloned from literature reports (e.g., Deng, R. et al. MAbs (2016), the content of which is incorporated herein by reference in entirety) and placed into a mouse IgG1 framework (10 mg/kg) was administered every 5 days for a total of six doses. Investigators were not blinded to treatment groups. […] Mice were sacrificed on Day 13 and lung metastases were quantified (small ≤1 mm, medium >1 mm and ≤3 mm, large >3 mm). No large lung metastases were detected.

B16F10 MDOTS [2] = assay: Bead-based cytokine profiling of B16F10 MDOTS; format: cell-based, murine; conditions: Cmpd1 (1 μM) ± αPD-1
Experimental: as §1
Two multiplex assays were performed utilizing a bead-based immunoassay approach, the Bio-Plex Pro™ Human Cytokine 40-plex Assay (Cat #171AK99MR2) and Bio-Plex Pro™ Mouse Cytokine Panel 1, 23-plex (Cat #M60009RDPD) on a Bio-plex 200 system (Cat #171000201). […] Fold changes relative to the MDOT/PDOT control were calculated and plotted as log 2FC. Lower and upper limits of quantitation (LLOQ/ULOQ) were imputed from standard curves for cytokines above or below detection. […]

MB49 allograft = assay: MB49 allograft, Compound 1 and anti-PD-L1 combination in vivo; set-up: species or system mouse; conditions: Cmpd1 + αPD-L1

N#Cc1cc(-c2ncnc(Nc3ccc(N4CCN(C5COC5)CC4)cc3)n2)ccc1OC1CCOCC1 [Compound 1, 5-(4-((4-(4-(oxetan-3-yl)piperazin-1-yl)phenyl)amino)-1,3,5-triazin-2-yl)-2-((tetrahydro-2H-pyran-4-yl)oxy)benzonitrile]
sensitization of B16F10 MDOTS to PD-1 blockade (live/dead) (B16F10 MDOTS [1]): could not be sensitized | sensitization of B16F10 tail vein model to PD-L1 blockade (lung metastases) (B16F10 lung metastases): could not be sensitized | immune suppressive chemokines (e.g., CCL2, CCL5) in B16F10 MDOTS (B16F10 MDOTS [2]): downregulation | induction of G-CSF and related innate immune response cytokines in B16F10 MDOTS (B16F10 MDOTS [2]): without concomitant induction | response to combination treatment in vivo, MB49 bladder carcinoma model (MB49 allograft): enhanced response
